In patent US20120165310A1, “ETHER DERIVATIVES OF BICYCLIC HETEROARYLS” (NOVARTIS AG, priority 2009, published 2012):

Biological target: T1, IGF-1R (Homo sapiens, UniProt P08069)
T1 construct: expressed in transfected cells; host or cells: Hek293 (Hek293-IGF1R)
Assay: Cellular IGF-1R assay: capture ELISA (MSD) of receptor phosphorylation in Hek293 cells
Assay type: cell-based
Settings: Hek293-IGF1R cells, 1 h pre-incubation, 10 min IGF stimulation, pIGF1R capture ELISA
Description: (§1) In this assay the activity of the compounds of the invention against Insulin-like growth factor I (IGF-I) induced autophosphorylation of the IGF-IR was determined. The assay was conducted as follows: Compound-mediated inhibition of IGF1R and INSR phosphorylation in Hek293 cells transduced with the corresponding receptors was assessed in a capture ELISA format using the MSD (Meso Scale Discovery) platform. Briefly, 30,000 cells washed and diluted in starvation medium (DMEM high glucose supplemented with 0.1% BSA) were seeded in 90 μL per well into 96-well plates pre-coated with poly-D-lysine (0.1 mg/mL in PBS/O). After 24 h incubation at 37° C. and 5% CO2, dose-response effects were determined with 3-fold serial compound dilutions, starting at 10 μM. The final vehicle concentration is 0.1% DMSO in all wells. Following pre-incubation with compounds for 1 h, receptor phosphorylation was triggered by a 10 min exposure to 1.0 ng/μL IGF for Hek293-IGF1R cells, and 5.0 ng/μL insulin for Hek293-InsR cells. Cell lysis was achieved by addition of 80 μL MSD lysis buffer per aspirated well, incubation on ice for 20 min, and a freeze-thaw cycle. Target phosphorylation was then assessed by transferring volumes corresponding to approx. 6 μg Hek293-IGF1R or 0.6 μg Hek293-InsR lysates to MSD assay plates pre-coated with total-IGF1R or total-InsR Abs, respectively. […] Immune complexes were detected by a SULFO-Tag™-coupled anti-rabbit IgG antibody in the presence of 150 μL MSD read-buffer. Light emission at 620 nm triggered by application of electric current was recorded on a MSD Sectorlmager 6000. Acquired raw data (mean Ru-ECL units) were processed in an Excel analysis template. The plate blank (MSD lysis buffer) was subtracted from all data points. The effect of a particular test compound concentration on receptor phosphorylation was expressed relative to the window defined by ligand-stimulated vs unstimulated control cells (set as 100%). IC50 values [nM] were determined using 4-parametric curve-fitting (XLfit software, V4.3.2).
as §1, with “Compound-mediated” for “In this assay the activity of the compounds of the invention against Insulin-like growth factor I (IGF-I) induced autophosphorylation of the IGF-IR was determined. The assay was conducted as follows: Compound-mediated”, “cells trans-duced” for “cells transduced”, “receptors were” for “receptors was”, “concentration was” for “concentration is”, “for Hek293-IGF1 R” for “for Hek293-IGF1R”, “with total-IGF1 R” for “with total-IGF1R”

T1 sequence (P08069 31-1367): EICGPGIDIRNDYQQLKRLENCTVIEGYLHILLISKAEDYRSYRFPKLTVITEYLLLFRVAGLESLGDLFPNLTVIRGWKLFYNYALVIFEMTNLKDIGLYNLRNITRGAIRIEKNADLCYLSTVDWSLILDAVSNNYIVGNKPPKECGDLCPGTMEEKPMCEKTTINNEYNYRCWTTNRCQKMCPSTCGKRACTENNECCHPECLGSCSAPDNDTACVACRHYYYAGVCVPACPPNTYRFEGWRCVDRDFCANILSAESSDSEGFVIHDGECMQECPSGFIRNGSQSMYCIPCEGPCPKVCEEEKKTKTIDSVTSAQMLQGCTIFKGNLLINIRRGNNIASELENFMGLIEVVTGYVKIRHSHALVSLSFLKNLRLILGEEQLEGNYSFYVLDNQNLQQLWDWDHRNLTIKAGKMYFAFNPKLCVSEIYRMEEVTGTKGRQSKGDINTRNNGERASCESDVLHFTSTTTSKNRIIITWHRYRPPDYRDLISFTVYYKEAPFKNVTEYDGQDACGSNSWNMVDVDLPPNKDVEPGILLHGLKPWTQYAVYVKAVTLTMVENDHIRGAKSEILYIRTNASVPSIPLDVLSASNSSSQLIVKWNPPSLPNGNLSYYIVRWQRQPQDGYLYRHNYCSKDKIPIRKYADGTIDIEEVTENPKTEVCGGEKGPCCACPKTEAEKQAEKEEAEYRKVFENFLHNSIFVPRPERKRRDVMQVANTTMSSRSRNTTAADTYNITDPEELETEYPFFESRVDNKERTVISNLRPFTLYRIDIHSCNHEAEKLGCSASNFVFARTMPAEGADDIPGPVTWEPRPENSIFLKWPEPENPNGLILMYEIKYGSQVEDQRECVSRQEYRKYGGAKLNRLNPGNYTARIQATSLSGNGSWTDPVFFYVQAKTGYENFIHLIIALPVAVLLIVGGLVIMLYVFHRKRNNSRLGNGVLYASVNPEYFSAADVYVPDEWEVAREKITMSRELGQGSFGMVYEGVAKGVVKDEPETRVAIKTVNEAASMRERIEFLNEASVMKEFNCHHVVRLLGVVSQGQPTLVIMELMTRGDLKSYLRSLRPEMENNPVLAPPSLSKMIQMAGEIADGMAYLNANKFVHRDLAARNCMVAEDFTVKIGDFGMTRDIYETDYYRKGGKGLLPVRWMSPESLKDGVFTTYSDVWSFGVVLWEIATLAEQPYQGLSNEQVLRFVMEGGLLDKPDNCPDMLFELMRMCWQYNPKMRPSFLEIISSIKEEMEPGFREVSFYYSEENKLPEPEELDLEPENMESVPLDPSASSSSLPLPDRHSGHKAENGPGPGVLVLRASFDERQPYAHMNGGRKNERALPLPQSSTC

Row | Compound | IC50
1 | NC(=O)C1CC(F)CN1CC1CC(n2cc(-c3cccc(OCC4CCCCO4)c3)c3c(N)ncnc32)C1 [Example 97, (2S,4S)-1-(((1S,3R)-3-(4-amino-5-(3-((tetrahydro-2H-pyran-2-yl)methoxy)phenyl)-7H-pyrrolo[2,3-d]pyrimidin-7-yl)cyclobutyl)methyl)-4-fluoropyrrolidine-2-carboxamide] | 0.105 µM
2 | CC(C)C(=O)NCC1CC(n2cc(-c3cccc(OCC45CCC(CC4)O5)c3)c3c(N)ncnc32)C1 (centres unmarked) [Example 164, N-(3-{4-amino-5-[3-(7-oxa-bicyclo[2.2.1]hept-1-ylmethoxy)-phenyl]-pyrrolo[2,3-d]pyrimidin-7-yl}-cyclobutylmethyl)-isobutyramide] | 0.143 µM
3 | 7-[cis-3-(4-methyltetrazoyl-1-ylmethyl)-cyclobutyl]-5-3-(7-oxa-bicyclo[2.2.1]hept-1-ylmethoxy)-phenyl]-7H-pyrrolo[2,3-d]pyrimidin-4-ylamine [Example 179] | 0.345 µM
4 | Nc1ncnc2c1c(-c1cccc(OCC34CCC(CC3)O4)c1)cn2C1CCC2(CC1)CNC(=O)O2 (centres unmarked) [Example 139, 8-(5-(3-(7-oxabicyclo[2.2.1]heptan-1-ylmethoxy)phenyl)-4-amino-7H-pyrrolo[2,3-d]pyrimidin-7-yl)-1-oxa-3-azaspiro[4.5]decan-2-one] | 0.543 µM
5 | Nc1ncnc2c1c(-c1cccc(OCC3CCCCO3)c1)cn2[C@H]1C[C@@H](CN2CC[C@H](O)C2)C1 (stereo partly drawn) [Example 34, (S)-1-(cis-3-{4-amino-5-[3-(tetrahydro-pyran-2-ylmethoxy)-phenyl]-pyrrolo[2,3-d]pyrimidin-7-yl}-cyclobutylmethyl)-pyrrolidin-3-ol] | 0.333 µM
6 | Nc1ncnc2c1c(-c1cccc(OCC34CCC(CC3)O4)c1)cn2[C@H]1C[C@H](N2CC3CC2CN3CCO)C1 (stereo partly drawn) [Example 175, 2-[(trans-3-{4-amino-5[3-(7-oxa-bicyclo[2.2.1]hept-1-ylmethoxy)-phenyl]-pyrrolo[2,3-d]pyrimidin-7-yl}-cyclobutyl)-2,5-diaza-bicyclo[2.2.1]hept-2-yl]-ethanol] | 0.436 µM
7 | Nc1ncnc2c1c(-c1cccc(OCC34CCC(CC3)O4)c1)cn2[C@H]1CC[C@@H](CN2CCNCC2)CC1 [Example 136, 5-(3-(7-oxabicyclo[2.2.1]heptan-1-ylmethoxy)phenyl)-7-((1S,4S)-4-(piperazin-1-ylmethyl)cyclohexyl)-7H-pyrrolo[2,3-d]pyrimidin-4-amine] | 0.597 µM
8 | CC1(C)CCC(COc2cccc(-c3cn(C4CC(CN5CCC(F)C5)C4)c4ncnc(N)c34)c2)O1 (single isomer, unassigned) [Example 39] | 0.224 µM
9 | CC1(C)CCC(COc2cccc(-c3cn([C@H]4C[C@@H](CN5CC(C(N)=O)C5)C4)c4ncnc(N)c34)c2)O1 (relative stereo) [Example 49, 1-(cis-3-{4-amino-5-[3-(5,5-dimethyl-tetrahydro-furan-2-ylmethoxy)-phenyl]-pyrrolo[2,3-d]pyrimidin-7-yl}-cyclobutylmethyl)-azetidine-3-carboxylic acid amide] | 0.192 to 0.241 µM

Compounds with a lower IC50, results first:

Row | IC50 | Compound
10 | < 0.004 µM | CC1(C)CCC(COc2cccc(-c3cn([C@H]4C[C@H](CN5CCC[C@H]5C(N)=O)C4)c4ncnc(N)c34)c2)O1 (stereo partly drawn) [Example 71, (S)-1-(trans-3-{4-amino-5-[3-(5,5-dimethyl-tetrahydro-furan-2-ylmethoxy)-phenyl]-pyrrolo[2,3-d]pyrimidin-7-yl}-cyclobutylmethyl)-pyrrolidine-2-carboxylic acid amide]
11 | 0.016 µM | [2H]C1([2H])C([2H])([2H])C2(COc3cccc(-c4cn([C@H]5C[C@@H](CN6CCS(=O)(=O)CC6)C5)c5ncnc(N)c45)c3)OC1([2H])C([2H])([2H])C2([2H])[2H] [Example 166, d9-7-[cis-3-(1,1-dioxo-1-thiomorpholin-4-ylmethyl)-cyclobutyl]-5-[3-(7-oxa-bicyclo[2.2.1]hept-1-ylmethoxy)-phenyl]-7H-pyrrolo[2,3-d]pyrimidin-4-ylamine]
12 | 0.033 µM | NC(=O)[C@@H]1CCCN1C[C@]1(O)C[C@@H](n2cc(-c3cccc(OCC45CCC(CC4)O5)c3)c3c(N)ncnc32)C1 [Example 198, (S)-(Z)-1-(3-(4-Amino-5-[3-(7-oxa-bicyclo[2.2.1]hept-1-ylmethoxy)-phenyl]-pyrrolo[2,3-d]pyrimidin-7-yl}-1-hydroxy-cyclobutylmethyl)-pyrrolidine-2-carboxylic acid amide]
13 | 0.038 µM | Nc1ncnc2c1c(-c1cccc(OCC34CCC(CC3)O4)c1)cn2C1CC(CN2CC(O)C2)C1 (centres unmarked) [Example 26, 1-(3-{4-amino-5-[3-(7-oxa-bicyclo[2.2.1]hept-1-ylmethoxy)-phenyl]-pyrrolo[2,3-d]pyrimidin-7-yl}-cyclobutylmethyl)azetidin-3-ol]
14 | 0.054 µM | Nc1ncnc2c1c(-c1cccc(OCC34CCC(CC3)O4)c1)cn2[C@H]1CC[C@@H](NC(=O)C2CCC2)CC1 [Example 142, N-((1S,4S)-4-(5-(3-(7-oxabicyclo[2.2.1]heptan-1-ylmethoxy)phenyl)-4-amino-7H-pyrrolo[2,3-d]pyrimidin-7-yl)cyclohexyl)cyclobutanecarboxamide]
15 | 0.08 µM | CN1CCC(N2CC[C@@H](n3cc(-c4cccc(OCC56CCC(CC5)O6)c4)c4c(N)ncnc43)C2)CC1 [Example 216, 7-[(R)-1-(1-Methyl-piperidin-4-yl)-pyrrolidin-3-yl]-5-[3-(7-oxa-bicyclo[2.2.1]hept-1-ylmethoxy)-phenyl]-7H-pyrrolo[2,3-d]pyrimidin-4-ylannine]
16 | 0.044 µM | Nc1ncnc2c1c(-c1cccc(OCC34CCC(CC3)O4)c1)cn2C1CC(N2CCN(CCO)CC2)C1 (centres unmarked) [Example 170, 2-[4-(3-{4-amino-5-[3-(7-oxa-bicyclo[2.2.1]hept-1-ylmethoxy)-phenyl]-pyrrolo[2,3-d]pyrimidin-7-yl}-cyclobutyl)-piperazin-1-yl]-ethanol]
17 | 0.006 µM | NC(=O)[C@@H]1[C@H]2CC[C@H](C2)N1CC1CC(n2cc(-c3cccc(OCC45CCC(CC4)O5)c3)c3c(N)ncnc32)C1 (stereo partly drawn) [Example 104, (1R,3S,4S)-2-(((1S,3R)-3-(5-(3-(7-oxabicyclo[2.2.1]heptan-1-ylmethoxy)phenyl)-4-amino-7H-pyrrolo[2,3-d]pyrimidin-7-yl)cyclobutyl)methyl)-2-azabicyclo[2.2.1]heptane-3-carboxamide]
18 | 0.035 to 0.038 µM | Nc1ncnc2c1c(-c1cccc(OCC34CCC(CC3)O4)c1)cn2[C@H]1C[C@@H](N2CC[S+]([O-])CC2)C1 (relative stereo) [Example 232, 5-[3-(7-Oxa-bicyclo[2.2.1]hept-1-ylmethoxy)-phenyl]-7-[cis-3-(1-oxo-thiomorpholin-4-yl)-cyclobutyl]-7H-pyrrolo[2,3-d]pyrimidin-4-ylamine]
19 | 0.041 µM | CC1(C)CCC(COc2cccc(-c3cn([C@H]4C[C@@H](CN5CC(O)C5)C4)c4ncnc(N)c34)c2)O1 (relative stereo) [Example 41, 1-(cis-3-{4-amino-5-[3-(5,5-dimethyl-tetrahydro-furan-2-ylmethoxy)-phenyl]-pyrrolo[2,3-d]pyrimidin-7-yl}-cyclobutylmethyl)-azetidin-3-ol]
20 | 0.059 µM | CC1(C)CCC(COc2cccc(-c3cn([C@H]4C[C@@H](CN5CCSC5)C4)c4ncnc(N)c34)c2)O1 (relative stereo) [Example 70, 5-[3-(5,5-dimethyl-tetrahydro-furan-2-ylmethoxy)-phenyl]-7-(cis-3-thiazolidin-3-ylmethyl-cyclobutyl)-7H-pyrrolo[2,3-d]pyrimidin-4-ylamine]
